For this experiment, the target named is T1, Thymidine phosphorylase (Homo sapiens, UniProt P19971).
T1 sequence (P19971 whole entry): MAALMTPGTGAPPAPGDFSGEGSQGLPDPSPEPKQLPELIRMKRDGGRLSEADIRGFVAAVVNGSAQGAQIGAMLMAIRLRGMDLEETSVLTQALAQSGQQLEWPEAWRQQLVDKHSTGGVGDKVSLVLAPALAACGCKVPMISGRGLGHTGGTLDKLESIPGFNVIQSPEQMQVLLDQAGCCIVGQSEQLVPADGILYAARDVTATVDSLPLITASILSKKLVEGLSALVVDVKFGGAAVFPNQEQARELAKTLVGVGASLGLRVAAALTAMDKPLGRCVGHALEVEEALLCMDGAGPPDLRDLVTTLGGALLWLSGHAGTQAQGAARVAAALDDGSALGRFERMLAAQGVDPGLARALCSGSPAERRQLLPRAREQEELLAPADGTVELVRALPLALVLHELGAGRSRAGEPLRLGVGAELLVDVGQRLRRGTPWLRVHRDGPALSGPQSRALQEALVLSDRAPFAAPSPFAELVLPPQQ
Description: Inhibition of human TPase in presence of 100 uM thymidine
Broadly, the IC50 is the concentration needed to halve the response being measured. A high value points to weaker potency. `COCCOCn1cnc2c(ncn2[C@@H]2O[C@H](COC(c3ccccc3)(c3ccccc3)c3ccccc3)[C@@H](OC(C)=O)[C@H]2OC(C)=O)c1=O` showed an IC50 of more than 20 µM.
Compound `COCCOCNC(=O)c1ncn([C@@H]2O[C@H](COC(c3ccccc3)(c3ccccc3)c3ccccc3)[C@@H](O)[C@H]2O)c1N` registered an IC50 of more than 75 µM.
Turning to `CNC(=O)c1ncn([C@@H]2O[C@H](COC(c3ccccc3)(c3ccccc3)c3ccccc3)[C@@H](O)[C@H]2O)c1N`, the half-maximal inhibitory concentration (IC50) came out at 137 µM.
The value for `COCCOCn1cnc2c(ncn2[C@@H]2O[C@H](COC(c3ccccc3)(c3ccccc3)c3ccccc3)[C@@H](O)[C@H]2O)c1=O` was more than 100 µM; that for `O=c1c2ncn([C@@H]3O[C@H](COCc4ccccc4)[C@@H](O)[C@H]3O)c2ncn1Cc1ccccc1` was more than 200 µM; that for `NC(=O)c1ncn([C@@H]2O[C@H](COC(c3ccccc3)(c3ccccc3)c3ccccc3)[C@@H](O)[C@H]2O)c1N` was not below 40 µM.
`OC[C@@H](COC(c1ccccc1)(c1ccccc1)c1ccccc1)O[C@H](CO)n1cnc2c(O)ncnc21`: the IC50 was more than 200 µM.
